Columns and labels:
B-lymphoblast (LB) cells = assay: Proliferation of B-lymphoblast cells; type: cell-based, mouse
[1] = Photo transformation of biliverdin by UV irradiation of embryos (HPLC peak area); type: physicochemical, Xenopus laevis
Protocol: The cytoplasmic yolk platelet fraction that was photo transformed by UV light was identified in extracts of about 250 embryos irradiated with 366 nm UV light. The chromatogram of irradiated embryo extracts was compared to that of the non-irradiated ones to identify the photo transformed fraction. Once the retention time of the UV sensitive fraction was determined, the parent chemical species was isolated from control egg extracts. To confirm its UV sensitivity, an aliquot of the pertinent HPLC fraction in 44% acetonitrile and 3 mM ammonium acetate, pH 4.5, was irradiated in a cuvette in a Varian-Cary Bio 50 spectrophotometer at 366 nm. The pH was chosen to approximate that of intact yolk platelets. The wavelength was selected on the basis of the absorption spectra of the target fraction. The absorbance change was monitored at 375 nm. […]
After UV irradiation, a set of embryos from each group were collected, dejellied with 2% L-cysteine, 0.16M NaOH and washed extensively in 20% Steimberg's buffer. […] The bilins and retinoids in each batch were extracted, separated and analyzed as described. […] The gross morphological appearance of each individual embryo was evaluated by light microscopy. The developmental teratology characteristic of the “UV syndrome,” was scored by standard criteria and categorized into the five groups comprising the “index of axis deficiency”. […]

HT 29 Cancer Cells = assay: Distribution of cell cycle stages of HT 29 cancer cells; type: cell-based, human
Excerpt: The presence of the CDK-inhibitors leads to under phosphorylation of Rb protein. As a consequence, the cells are removed from cycling and the number of cells in G1 increases while those in S and G2 decrease, compared with control, untreated ones. This response of cell cycle kinetics is quite similar to those reported for other agents known to cause a G1, block e.g. troglitazone. Ultimately, proliferation ceases within one to three days. […] This decreased rate persists even after the tetrapyrrole is no longer added to the incubation medium. Finally, twelve days after its removal, proliferation resumes at a brisker rate dividing every 41 hrs. This rate is still slower than that of the control cells that double every 18 hrs. […] In contrast, cellular survival or proliferation is not affected by amounts lower than 10^−7 M biliverdin (not shown).

[2] = system: alkaline phosphatase activity in HT 29 cells; assay: Cellular alkaline phosphatase activity of HT 29 cells; type: cell-based, human; details: HT 29, by day 20 of incubation
Protocol: Expression of differentiation markers. Carcinoembryogenic antigen in cell supernatants collected each three days was assayed by standard ELISA determinations using an IMX assay for quantitative measurement of the antigen. Cellular triacyl glycerol content was measured spectrophotometrically by enzymatic hydrolysis and analysis of the amount of glycerol released using a standard assay, Triglyceride (INT) 10 (Sigma Diagnostics). […] The fluorescence is detected at 450 nm with an excitation of 365 nm, using a Jobin Ivon-Spex Fluoro Max-2 fluorimeter. The alkaline phosphatase activity detected was expressed in units of μmol/mg protein/min. Alkaline phosphatase activity was assayed at the same periods as above but with different sets of cells. Treated and control cells were detached with trypsin and counted. One half of the cells were used to maintain the culture while the other half were used to measure alkaline phosphatase activity. […] Absorbance was detected at […] on a Varian Cary UV-Visible Spectrophotometer. The absorbance was compared against a standard curve created with bovine serum albumin from 2.5 to 25 μg/ml. […] The fluorescence generated is detected at 450 nm with an excitation of 365 nm, using a Jobin Ivon-Spex Fluoro Max-2 fluorimeter. […] The alkaline phosphatase actively detected was expressed in units of μmol product/mg protein/min.

share of the 23.3 min peak area photo transformed by UV irradiation ([1]; embryos irradiated with 366 nm UV light, typical experiment): > 67%
decrease of content after UV irradiation ([1]; pre-cleavage embryos exposed to 358 nm for 10 min): 50%
Structure (SMILES): C=CC1=C(C)/C(=C/C2=NC(=C\c3[nH]c(/C=C4\NC(=O)C(C)=C4C=C)c(C)c3CCC(=O)O)/C(CCC(=O)O)=C2C)NC1=O [Biliverdin, biliverdin IXα]
time until proliferation ceases (B-lymphoblast (LB) cells): within one day
time until cell division resumes at nearly the control rate (B-lymphoblast (LB) cells; still exposed): 3 to 4 days
cells in G2 (HT 29 Cancer Cells; control 11): 7%
cells in G1 (HT 29 Cancer Cells; control 42): 63%
cells in S (HT 29 Cancer Cells; control 47): 30%
peak increase of alkaline phosphatase activity [2]: fifteen-fold
